The record followed here is ChEMBL document CHEMBL4184224, “Degradation of huntingtin mediated by a hybrid molecule composed of IAP antagonist linked to phenyldiazenyl benzothiazole derivative” (Bioorg Med Chem Lett, 2018).

Holding throughout (assay type): protein assay
Test [1] deals with T1, Baculoviral IAP repeat-containing protein 3/Huntingtin (Homo sapiens) (UniProt Q13489+P42858). In words: Induction of IAP-huntingtin interaction-mediated huntingtin protein degradation in fibroblasts derived from normal human subjects assessed as huntingtin protein level at 10 uM incubated for 24 hrs by Western blot method (reference value: 100%). Background: Immunoblotting shows a protein as a band on a membrane.

Test [2] has as its target T1, Baculoviral IAP repeat-containing protein 3/Huntingtin (Homo sapiens). In words: Induction of IAP-huntingtin interaction-mediated huntingtin protein degradation in fibroblasts derived from normal human subjects at 10 uM incubated for 24 to 72 hrs by Western blot method.
Test [3] has the same target. In words: Induction of IAP-huntingtin interaction-mediated huntingtin protein degradation in fibroblasts derived from normal human subjects assessed as huntingtin protein level at 10 uM incubated for 72 hrs by Western blot method (reference value: 100%).
The target is the same in test [4]. The test can be described thus: Induction of IAP-huntingtin interaction-mediated huntingtin protein degradation in fibroblasts derived from normal human subjects assessed as huntingtin protein level at 10 uM incubated for 96 hrs by Western blot method (reference value: 100%).
Test [5] shares this target. The test can be described thus: Induction of IAP-huntingtin interaction-mediated huntingtin protein degradation in fibroblasts derived from Huntington's disease patient at 10 uM incubated for 24 to 72 hrs by Western blot method.
Test [6] has the same target. In words: Induction of IAP-huntingtin interaction-mediated huntingtin protein degradation in fibroblasts derived from normal human subjects assessed as huntingtin protein level at 10 uM incubated for 48 hrs by Western blot method (reference value: 100%).
The target is the same in test [7]. In words: Induction of immobilized GST tagged BIR3 (unknown origin)/insoluble GST-tagged huntingtin 62Q mutant (unknown origin) interaction at 3 to 30 uM incubated for 1.5 hrs at 37 degC by ELISA. (In general: In an ELISA, binding on a coated surface is turned into a signal by an enzyme label.)
Test [8] shares this target. In words: Induction of immobilized GST tagged BIR3 (unknown origin)/soluble GST-tagged huntingtin 62Q mutant (unknown origin) interaction at 3 to 30 uM incubated for 1.5 hrs at 37 degC by ELISA.
The target is the same in test [9]. The test can be described thus: Induction of IAP-huntingtin interaction-mediated huntingtin protein degradation in fibroblasts derived from Huntington's disease patient incubated for 24 hrs by Western blot method.
Test [10] shares this target. The test can be described thus: Induction of immobilized GST tagged BIR3 (unknown origin)/soluble GST-tagged huntingtin 62Q mutant (unknown origin) interaction at 10 uM in presence of 3 and 10 uM MV1 incubated for 1.5 hrs at 37 degC by ELISA.
Test [11] has the same target. In words: Induction of IAP-huntingtin interaction-mediated huntingtin protein degradation in fibroblasts derived from Huntington's disease patient incubated for 48 to 72 hrs by Western blot method.
The target is the same in test [12]. The test can be described thus: Induction of immobilized GST tagged BIR3 (unknown origin)/soluble GST-tagged huntingtin 62Q mutant (unknown origin) interaction at 10 uM in presence of 10 and 100 uM thioflavin T incubated for 1.5 hrs at 37 degC by ELISA.

SMILES strings stand for the structures. The source made the active and inactive calls. The calls are words filed in the database; no cut-off is given here. Where a SMILES comes first, the peptide text is derived from it. [ ]: non-standard residue; d: D form. The star is where a group is joined. X1 = CN(C)c1ccc(/N=N/c2nc3ccc(OCCOCCOCCN*)cc3s2)cc1; Dip = N[C@H](C(=O)O)C(c1ccccc1)c1ccccc1; Chg = N[C@H](C(=O)O)C1CCCCC1; NMeA = CN[C@@H](C)C(=O)O

T1 sequence (P42858 whole entry, looked up): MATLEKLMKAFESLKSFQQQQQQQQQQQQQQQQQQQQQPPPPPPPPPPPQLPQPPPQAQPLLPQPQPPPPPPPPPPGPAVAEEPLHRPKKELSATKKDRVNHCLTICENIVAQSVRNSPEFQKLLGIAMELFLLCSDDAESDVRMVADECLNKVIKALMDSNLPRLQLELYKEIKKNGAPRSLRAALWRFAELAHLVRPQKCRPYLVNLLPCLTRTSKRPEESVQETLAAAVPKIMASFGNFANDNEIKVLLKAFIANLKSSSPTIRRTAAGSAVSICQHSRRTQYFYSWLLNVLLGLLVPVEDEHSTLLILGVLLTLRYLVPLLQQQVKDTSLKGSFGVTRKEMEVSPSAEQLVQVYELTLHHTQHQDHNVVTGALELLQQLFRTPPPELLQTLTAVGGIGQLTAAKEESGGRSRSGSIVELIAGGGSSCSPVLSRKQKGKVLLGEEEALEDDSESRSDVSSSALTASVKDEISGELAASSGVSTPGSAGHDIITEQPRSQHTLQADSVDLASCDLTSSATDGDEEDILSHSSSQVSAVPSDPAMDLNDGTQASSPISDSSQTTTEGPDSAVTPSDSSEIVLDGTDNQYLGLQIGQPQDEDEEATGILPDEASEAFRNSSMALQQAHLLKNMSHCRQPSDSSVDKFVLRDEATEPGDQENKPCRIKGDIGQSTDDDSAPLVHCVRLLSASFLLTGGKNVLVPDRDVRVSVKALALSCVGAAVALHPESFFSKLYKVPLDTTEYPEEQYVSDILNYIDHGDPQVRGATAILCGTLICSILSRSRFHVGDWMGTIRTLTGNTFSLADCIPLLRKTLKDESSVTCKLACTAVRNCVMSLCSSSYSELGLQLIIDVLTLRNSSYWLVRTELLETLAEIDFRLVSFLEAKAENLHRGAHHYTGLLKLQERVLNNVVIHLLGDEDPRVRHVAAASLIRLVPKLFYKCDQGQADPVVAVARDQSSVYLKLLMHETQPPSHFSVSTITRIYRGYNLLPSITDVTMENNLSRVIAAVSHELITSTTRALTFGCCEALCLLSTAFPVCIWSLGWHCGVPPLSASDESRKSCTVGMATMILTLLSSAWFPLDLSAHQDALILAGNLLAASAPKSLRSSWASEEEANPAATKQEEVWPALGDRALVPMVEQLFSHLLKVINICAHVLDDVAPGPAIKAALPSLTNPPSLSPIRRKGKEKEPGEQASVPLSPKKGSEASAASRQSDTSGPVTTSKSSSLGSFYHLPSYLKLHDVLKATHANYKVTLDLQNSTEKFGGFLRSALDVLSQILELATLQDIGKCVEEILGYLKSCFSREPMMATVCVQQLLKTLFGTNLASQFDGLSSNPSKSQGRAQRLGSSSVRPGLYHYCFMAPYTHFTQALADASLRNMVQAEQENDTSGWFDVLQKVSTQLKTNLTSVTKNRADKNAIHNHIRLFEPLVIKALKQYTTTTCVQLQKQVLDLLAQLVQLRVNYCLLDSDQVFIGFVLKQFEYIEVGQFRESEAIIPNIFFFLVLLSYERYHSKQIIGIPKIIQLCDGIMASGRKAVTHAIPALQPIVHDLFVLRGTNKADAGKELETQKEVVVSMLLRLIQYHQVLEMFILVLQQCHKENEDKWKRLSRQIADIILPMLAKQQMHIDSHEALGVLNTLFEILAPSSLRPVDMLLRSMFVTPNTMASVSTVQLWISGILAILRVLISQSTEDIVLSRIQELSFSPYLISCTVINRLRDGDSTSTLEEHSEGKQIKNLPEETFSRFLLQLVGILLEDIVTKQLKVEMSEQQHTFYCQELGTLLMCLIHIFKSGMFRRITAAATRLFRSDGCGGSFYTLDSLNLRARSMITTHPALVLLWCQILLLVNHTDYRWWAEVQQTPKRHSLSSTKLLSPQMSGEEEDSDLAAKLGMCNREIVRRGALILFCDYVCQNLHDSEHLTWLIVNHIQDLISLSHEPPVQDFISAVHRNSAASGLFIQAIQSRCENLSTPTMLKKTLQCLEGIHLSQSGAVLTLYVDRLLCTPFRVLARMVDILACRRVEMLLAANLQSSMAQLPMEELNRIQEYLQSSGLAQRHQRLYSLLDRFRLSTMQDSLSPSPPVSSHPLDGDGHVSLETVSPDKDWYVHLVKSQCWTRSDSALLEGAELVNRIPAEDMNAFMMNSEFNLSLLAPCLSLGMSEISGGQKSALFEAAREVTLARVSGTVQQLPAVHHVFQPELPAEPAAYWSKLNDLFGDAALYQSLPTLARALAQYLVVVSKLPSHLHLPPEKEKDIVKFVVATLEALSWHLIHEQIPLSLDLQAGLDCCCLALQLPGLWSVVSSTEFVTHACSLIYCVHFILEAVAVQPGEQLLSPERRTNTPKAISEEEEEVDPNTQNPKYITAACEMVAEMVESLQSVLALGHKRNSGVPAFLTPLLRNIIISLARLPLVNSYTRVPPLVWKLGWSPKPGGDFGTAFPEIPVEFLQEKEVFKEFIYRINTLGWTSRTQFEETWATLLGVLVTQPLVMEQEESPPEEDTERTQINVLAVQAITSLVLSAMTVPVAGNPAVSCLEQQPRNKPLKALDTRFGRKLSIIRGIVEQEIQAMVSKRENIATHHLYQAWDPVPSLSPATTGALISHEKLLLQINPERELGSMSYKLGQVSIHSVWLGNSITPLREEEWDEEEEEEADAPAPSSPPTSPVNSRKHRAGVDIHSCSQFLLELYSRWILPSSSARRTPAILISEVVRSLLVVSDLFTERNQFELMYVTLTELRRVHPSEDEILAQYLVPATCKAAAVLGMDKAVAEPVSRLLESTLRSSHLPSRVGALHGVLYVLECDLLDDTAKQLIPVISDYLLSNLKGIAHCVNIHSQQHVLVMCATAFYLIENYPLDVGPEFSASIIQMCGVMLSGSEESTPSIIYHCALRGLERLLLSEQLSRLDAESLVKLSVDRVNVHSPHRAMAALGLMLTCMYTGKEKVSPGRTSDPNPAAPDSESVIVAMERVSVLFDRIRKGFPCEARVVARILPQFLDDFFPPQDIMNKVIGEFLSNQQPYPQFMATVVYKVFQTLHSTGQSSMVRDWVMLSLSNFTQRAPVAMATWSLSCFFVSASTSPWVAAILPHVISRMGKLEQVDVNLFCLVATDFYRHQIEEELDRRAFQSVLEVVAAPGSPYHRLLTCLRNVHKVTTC
T1 sequence (Q13489 whole entry, looked up): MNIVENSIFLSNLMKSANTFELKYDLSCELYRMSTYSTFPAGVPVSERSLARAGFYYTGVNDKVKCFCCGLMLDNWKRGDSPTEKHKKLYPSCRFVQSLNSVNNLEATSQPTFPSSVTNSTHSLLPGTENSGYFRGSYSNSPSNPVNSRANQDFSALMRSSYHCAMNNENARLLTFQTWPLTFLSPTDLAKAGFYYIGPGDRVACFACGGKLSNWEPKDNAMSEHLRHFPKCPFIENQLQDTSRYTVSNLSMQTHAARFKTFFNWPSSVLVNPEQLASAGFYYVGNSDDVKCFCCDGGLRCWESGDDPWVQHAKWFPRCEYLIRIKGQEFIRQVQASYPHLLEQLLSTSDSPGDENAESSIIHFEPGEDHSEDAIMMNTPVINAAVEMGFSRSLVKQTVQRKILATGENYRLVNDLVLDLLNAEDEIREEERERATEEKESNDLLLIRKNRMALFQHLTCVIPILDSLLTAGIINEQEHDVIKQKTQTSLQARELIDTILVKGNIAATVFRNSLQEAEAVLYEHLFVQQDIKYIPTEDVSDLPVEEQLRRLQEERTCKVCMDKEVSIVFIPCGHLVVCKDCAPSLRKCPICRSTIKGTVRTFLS

In the case of `CC(C)C[C@H](NC(=O)[C@@H](O)[C@H](N)Cc1ccccc1)C(=O)NCCOCCOCCOc1ccc2nc(/N=N/c3ccc(N(C)C)cc3)sc2c1`, the outcome in test [1], in [2], in test [3], in test [4], in [5] and in test [6] was Active.
Regarding `Cc1ccc2nc(-c3ccc(NCCOCCOCCNC(=O)[C@H](CC(C)C)NC(=O)[C@@H](O)[C@H](N)Cc4ccccc4)cc3)sc2c1`, the outcome in test [1], in test [2], in [3], in test [4], in test [5] and in test [6] was Active.
Turning to `CN[C@@H](C)C(=O)N[C@H](C(=O)N1CCC[C@H]1C(=O)N[C@H](C(=O)NCCOCCOCCOc1ccc2nc(/N=N/c3ccc(N(C)C)cc3)sc2c1)C(c1ccccc1)c1ccccc1)C1CCCCC1` (H-[NMeA][Chg]P[Dip]-X1), the result in test [7], in test [8], in [11] and in test [5] was Active. Besides, the Activity in test [1] was 72%; in test [9], “Dose-dependent effect”; in test [3] it was 76%; in [4], 44%; in [6] it was 70%. The result in test [10] and in test [12] was inactive.
